# Assay results published in publication PMC6934184, “Selective DNA-PKcs inhibition extends the therapeutic index of localized radiotherapy and chemotherapy” (The Journal of Clinical Investigation, 2019).
# Biological target: T1, AKT3 (PKB gamma) (Homo sapiens, UniProt Q9Y243)
# T1 construct: purchased Thermo Fisher Scientific (Life Technologies) SelectScreen
# Test: SelectScreen Z'LYTE
# Assay type: biochemical
# Procedure, shortened: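 NU5455 was profiled across the SelectScreen Broad panel of kinase activity and binding assays. Z'LYTE reactions such as CSF1R ran at apparent Km ATP, while the Adapta CAMK1 assay used ATP listed as 10. Values are given as percent.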
# T1 sequence (Q9Y243 whole entry): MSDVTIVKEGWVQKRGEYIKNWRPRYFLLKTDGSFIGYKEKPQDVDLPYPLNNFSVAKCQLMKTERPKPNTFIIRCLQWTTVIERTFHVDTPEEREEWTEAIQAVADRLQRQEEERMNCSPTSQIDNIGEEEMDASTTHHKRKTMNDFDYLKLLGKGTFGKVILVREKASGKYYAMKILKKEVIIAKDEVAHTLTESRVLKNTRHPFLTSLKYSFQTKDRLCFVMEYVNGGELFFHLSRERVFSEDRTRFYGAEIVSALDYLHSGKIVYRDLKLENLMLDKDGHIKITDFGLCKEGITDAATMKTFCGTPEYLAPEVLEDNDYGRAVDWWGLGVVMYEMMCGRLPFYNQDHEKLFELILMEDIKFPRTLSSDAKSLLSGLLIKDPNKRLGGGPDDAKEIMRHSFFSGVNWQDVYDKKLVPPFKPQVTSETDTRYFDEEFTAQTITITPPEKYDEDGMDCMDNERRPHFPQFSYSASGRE
smiles,measurement,value
CN(C(=O)CN1CCOCC1)c1ccc2sc3c(-c4cccc5c(=O)cc(N6CC7CCC(C6)O7)oc45)cccc3c2c1 [NU5455],inhibition at 1 µM,-0.5%
